One data set concerns the target T1, human TLR7 (hTLR7) (Homo sapiens, UniProt Q9NYK1).
T1 construct: host or cells: HEK-Blue-hTLR7 (HEK293)
T1 sequence (Q9NYK1 27-1049): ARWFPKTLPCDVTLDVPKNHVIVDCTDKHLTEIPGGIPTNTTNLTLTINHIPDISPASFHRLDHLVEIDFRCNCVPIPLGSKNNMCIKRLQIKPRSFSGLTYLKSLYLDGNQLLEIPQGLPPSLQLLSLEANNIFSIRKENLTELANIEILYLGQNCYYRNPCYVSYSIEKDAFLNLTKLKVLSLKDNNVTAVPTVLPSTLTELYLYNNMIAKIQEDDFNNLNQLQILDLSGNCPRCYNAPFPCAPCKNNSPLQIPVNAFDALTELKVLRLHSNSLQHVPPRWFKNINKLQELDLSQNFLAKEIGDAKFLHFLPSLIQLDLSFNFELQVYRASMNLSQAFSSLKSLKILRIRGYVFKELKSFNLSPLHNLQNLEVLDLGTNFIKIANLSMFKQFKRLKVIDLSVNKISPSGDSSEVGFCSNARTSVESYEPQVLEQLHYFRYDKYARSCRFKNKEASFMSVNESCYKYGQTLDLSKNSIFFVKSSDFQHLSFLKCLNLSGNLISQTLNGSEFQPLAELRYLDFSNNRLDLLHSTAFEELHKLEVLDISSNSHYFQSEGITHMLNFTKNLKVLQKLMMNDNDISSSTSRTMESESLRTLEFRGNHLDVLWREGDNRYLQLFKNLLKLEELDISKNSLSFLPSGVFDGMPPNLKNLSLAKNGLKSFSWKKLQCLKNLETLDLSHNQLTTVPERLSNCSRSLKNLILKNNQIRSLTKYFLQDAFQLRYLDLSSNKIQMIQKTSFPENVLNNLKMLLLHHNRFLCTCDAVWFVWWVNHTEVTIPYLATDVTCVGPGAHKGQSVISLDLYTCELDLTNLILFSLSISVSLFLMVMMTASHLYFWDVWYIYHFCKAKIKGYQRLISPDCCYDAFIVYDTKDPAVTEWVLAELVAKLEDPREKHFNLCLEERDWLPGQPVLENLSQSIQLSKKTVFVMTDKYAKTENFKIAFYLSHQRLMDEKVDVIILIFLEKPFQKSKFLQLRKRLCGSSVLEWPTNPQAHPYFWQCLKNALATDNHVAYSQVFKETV
As to the kind of experiment: HEK hTLR7 reporter cells NF-κB/SEAP. The class given is cell-based. The conditions noted are these: IMQ at indicated concentrations + 1 μM ODN, 24 h. How it is done:
(§1) HEK-Blue™-mTLR7, mTLR8, hTLR7, hTLR8, and RAW-Blue™ cells were purchased from InvivoGen and were used to evaluate bioactivities of lipo ODNs and TLR 7/8 ligands in vitro. All these cell lines were cultured with DMEM supplemented with 10% FBS, 1% P/S and 100 μg/mL Normocin at 37° C. with 5% CO2. […] After incubating for 24 h, SEAP levels were quantified by developing supernatants with QuantiBlue™ substrate for 1 h and reading absorption at 620 nm, following manufacturer's instructions.
HEK293 cells transfected with human TLR7 or 8 were used. The cells were stimulated with IMQ in the presence of several inhibitory oligonucleotides reported in the literature. […] In contrast, all the unmodified ODNs maintained their inhibitory function, reducing the NF-κB secretion to basal levels (FIG. 8A). We then plotted the IMQ dose response curve in human TLR-7 transfected HEK293 cells.

Data set [1] concerns TLR7-mediated NF-κB activation in Raw-Blue reporter cells. As to the kind of experiment: Raw-Blue NF-κB/SEAP reporter stimulation with TLR7 ligands. The class given is cell-based, murine. As for the experimental part:
as §1
Following subcutaneous injection, lipid-modified oligonucleotides efficiently accumulated in the draining lymph nodes by binding and trafficking with endogenous albumin protein (Liu et al., Nature 507, 519-522, 2014; Yu et al., Pharmaceutical Res. 35: 56, 2018). Inspired by that prior work, the current study was aimed to take advantage of lipid functionalization in other oligonucleotide-based TLR inhibitors to further expand the pool of lipo suppressive ODNs. The therapeutic efficacy of lipid-modified IRS 954 in suppressing TLR7-mediated immune activation and alleviating the severity of SLE was investigated. Imiquimod (IMQ; FIG. 1A) was first used to stimulate TLR7-mediated immune activation in Raw-Blue reporter cells. For the initial experiments, Raw Blue cells-a murine RAW 264.7 macrophage cell line which expresses secreted embryonic alkaline phosphatase (SEAP) under the control of an NF-κB and AP-1, were used. Raw Blue cells express many toll-like receptors, including TLR-7, TLR-8, and TLR-9. The immunosuppressive capability of unmodified or lipo IRS 954 was determined by quantifying the level of TLR7-induced NF-κB activation.

In another data set the test system is human PBMC. Kind of data set: Cytokine secretion by human PBMC (ELISA). The class given is cell-based. The note with it: 24 h. As for the experimental part: Whole blood was obtained from the Red Cross, where healthy volunteers had provided informed consent to donate blood. Peripheral blood mononuclear cells (PBMC) were isolated by density gradient centrifugation using Histopaque-1077 (Sigma-Aldrich). The mononuclear cells were washed twice with cold PBS (1×) and resuspended in completed RPMI-1640 supplemented with 10% FBS and 1% penicillin/streptomycin. PBMC were seeded at 2×10^6/ml in 200 μL in a 96-well plate.
(§2) Supernatants collected from splenocytes suspension or human PBMC suspension after incubation were separately analyzed for IL-6, IL-12p40, TNF-α, and IFN-α by ELISA following manufacturer's instructions.

The next data set concerns Murine splenocytes. As to the kind of experiment: Cytokine secretion by murine splenocytes (ELISA). The class given is cell-based, mice. The conditions noted are these: 2 μM IMQ + 1 μM ODN, 24 h. As for the experimental part: Spleens were freshly collected from mice and were cut into small pieces. A plunger end of a syringe was used to further disassemble spleen tissues into single cells. The cell suspension was subsequently filtered and washed. Lysing buffer was utilized to remove excessive red blood cells. After two washes, 95% viability of splenocytes was confirmed by trypan blue. Splenocytes were resuspended in RPMI-1640 supplemented with 10% FBS and 1% P/S. Splenocytes were seeded at 1×10^6 cells/ml in 200 μL in a 96-well plate.
as §2
Background: In an ELISA, binding on a coated surface is turned into a signal by an enzyme label.

Experimental findings from patent US11504425B2, “Amphiphilic oligodeoxynucleotide conjugates as adjuvant enhancers” (WAYNE STATE UNIVERSITY, priority 2019, dated 2022) are described below.

Consider 5′-TTTTTTTTTTTTTTTTTTTT-3′ [T20], for which, in the data set with human TLR7 (hTLR7), the “IMQ dose response in hTLR7 cells in the presence of the ODN” value is given as “completely abrogated the immune activation by IMQ”. Also, the “lowering of IMQ-induced NF-κB activation” value in data set [1] (2 μM IMQ + 1 μM ODN, 24 h) is listed as 2 folds. Moreover, the “IMQ-elicited activation with high-dose ODN” value in data set [1] (2 μM IMQ + 5 μM T20, 24 h) is listed as “significantly enhanced inhibition in IMQ-elicited activation”. The “overall NF-κB stimulation by IMQ, CL075, R848 in the presence of the ODN” value in data set [1] (ligands at indicated concentrations + 1 μM ODN, 24 h) is given as “suppressive effect on all the TLR ligands tested”. In addition, the IFN-α production result in the data set on human PBMC (CL264 + ODN) was “completely abrogated IFN-α production”. Moreover, the IL-12 production result in the data set on human PBMC (TLR8-506 + ODN) is “able to augment the IL-12 production”. Besides, in the data set on Murine splenocytes, the “IFN-α production induced by IMQ” value is “decreased the production of IFN-α”, the IL-6 production entry is “significantly lower level of pro-inflammatory cytokines compared with IMQ alone”, the IL-12p40 production entry was “significantly lower level of pro-inflammatory cytokines compared with IMQ alone” and the TNF-α production entry is recorded as “significantly lower level of pro-inflammatory cytokines compared with IMQ alone”.
